Assay results: US20190359681A1, “NOVEL MINOR HISTOCOMPATIBILITY ANTIGENS AND USES THEREOF” (UNIVERSITÉ DE MONTRÉAL, priority 2015, published 2019)

system: T cells from MiHA-negative individuals; assay: Immunogenicity: T cells primed with MiHA-pulsed autologous dendritic cells, IFNγ ELISpot and intracellular cytokine staining; format: cell-based, human; conditions: T cells from four MiHA-negative individuals primed with autologous dendritic cells pulsed with synthetic MiHA; re-exposed to MiHA vs no peptide or irrelevant peptide
Experimental: Determination of the immunogenicity of the identified MiHAs. T cells and monocytes were purified from 100-150×10^6 PBMCs obtained from MiHA-negative individuals using MACS® cell separation columns (Miltenyi Biotec®) or EasySep™ kits (Stemcell Technologies®). Monocyte-derived dendritic cells were generated as previously described (3) and matured with GM-CSF, IL-4, PGE2, TNFα, IL-1β, IL-6 and IFNγ. These dendritic cells were then irradiated at 40 Gy and pulsed with 2 μg/mL of the synthetic MiHA peptide (GLRX3-1^S, WDR27-1^L, MIIP-2^E, or RASSF1-1^S) or an irrelevant peptide (Epstein-Barr virus LMP2^426-434) that was used a negative control. Pulsed or unpulsed dendritic cells were then co-cultured with previously enriched autologous T cells (5×10^5/well) in 48-well plates in advanced RPMI medium supplemented with 10% of human serum, 1% of L-Glutamine and 30 ng/mL of IL-21 at a 1:4 (stimulator:effector) ratio. Supplemented media with IL-7 and IL-15 was added after 3, 5 and 7 days of culture and cells were transferred in 12-well plates and 6-well plates at day 5 and 7, respectively. After 10 days of culture, T cells were harvested to determine antigen reactivity with ELISpot for IFNγ and polyfunctional intracellular cytokine staining. Briefly, ELISpot analysis was performed according to the manufacturer's instructions (MABtech®) and intracellular staining was performed after restimulation with 5 μg/mL of peptide in the presence of Brefeldin A for 4 hours. […] Acquisition was performed with a BD™ LSR II flow cytometer and data were analyzed using Flowlogic™ software (Inivai Technologies®).
As a proof of principle, the immunogenicity of four novel MiHAs was tested: GLRX3-1^S, MIIP-2^E, RASSF1-1^S and WDR27-1^L (FIGS. 3A-3D). […] Read-out of antigen-reactivity was assessed by ELISpot (FIG. 3A) and intracellular staining assays (FIGS. 3B-3D).

Row | Substance | cytokine production by primed T cells (antigen-reactivity by ELISpot and intracellular staining)
1 | EESAVPE/KRSW (EESAVPERSW) [MIIP-2^E] | produced cytokines in a MiHA-specific fashion in all tested donors
2 | FLS/PSANEHL [GLRX3-1^S, synthetic peptide tested for immunogenicity] | produced cytokines in a MiHA-specific fashion in all tested donors
3 | S/AEIEQKIKEY (SEIEQKIKEY) [RASSF1-1^S] | produced cytokines in a MiHA-specific fashion in all tested donors
